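Growth conditions: 96-well plates. Treatment: test compound, 48 hours, 5 concentrations. Analysis: linear interpolation between bracketing concentrations; unreached endpoints set to highest concentration. Here, GI50 denotes the concentration required for 50% inhibition of growth.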 The source made the active and inactive calls. Cut-off read from the data, not from the text of the source: active = GI50 up to about 1.1 µM and inactive = higher.
Tests used:
Assay in all cases: inhibition of tumour cell growth, NCI panel, 48 h
786-0 = system: 786-0
ACHN = system: ACHN
CCRF-CEM = system: CCRF-CEM
HCT-116 = system: HCT-116
HL-60 = system: HL-60
K562 = system: K562
MCF7 = system: MCF7
MDA-N = system: MDA-N
MOLT-4 = system: MOLT-4
NCI-H226 = system: NCI-H226
OVCAR-3 = system: OVCAR-3
PC-3 = system: PC-3
RPMI-8226 = system: RPMI-8226
SF-295 = system: SF-295
SK-MEL-2 = system: SK-MEL-2
SN12C = system: SN12C
T47D = system: T47D
UO-31 = system: UO-31
SF-539 = system: SF-539

`COC(=O)c1ccc(NC(=O)O/N=C(\Cl)C(C)C)cc1` was tested. Which GI50 (786-0) did it give?
The GI50 was 2.03 µM (inactive).

And the GI50 (ACHN)?
Its GI50 is 1.74 µM (inactive).

And the GI50 (CCRF-CEM)?
Its GI50 is 0.466 µM (active).

And the GI50 (HCT-116)?
Its GI50 is 5.61 µM (inactive).

What about the GI50 (HL-60) of the same compound?
Its GI50 is 1.36 µM (inactive).

And the GI50 (K562)?
The GI50 was 1.3 µM (inactive).

What about the GI50 (MCF7) of the same compound?
Its GI50 is 5.7 µM (inactive).

What about the GI50 (MDA-N) of the same compound?
The GI50 was 8.89 µM (inactive).

What about the GI50 (MOLT-4) of the same compound?
The GI50 was 1.79 µM (inactive).

What about the GI50 (NCI-H226) of the same compound?
Its GI50 is 18.9 µM (inactive).

What about the GI50 (OVCAR-3) of the same compound?
Its GI50 is 1.97 µM (inactive).

What about the GI50 (PC-3) of the same compound?
Its GI50 is 17.3 µM (inactive).

And the GI50 (RPMI-8226)?
Its GI50 is 1.83 µM (inactive).

What about the GI50 (SF-295) of the same compound?
Its GI50 is 17.7 µM (inactive).

What about the GI50 (SK-MEL-2) of the same compound?
The GI50 was 16.8 µM (inactive).

And the GI50 (SN12C)?
Its GI50 is 6.19 µM (inactive).

What about the GI50 (T47D) of the same compound?
The GI50 was 2 µM (inactive).

And the GI50 (UO-31)?
The GI50 was 15.4 µM (inactive).

Which GI50 (786-0) does the source give for `Cc1ccc(S(=O)(=O)NN=C2C(C)CC(C(C)(C)C)CC2C)cc1` (stereo not given) here?
The GI50 was 17.4 µM (inactive).

And the GI50 (CCRF-CEM)?
The GI50 was 20 µM (inactive).

What about the GI50 (HCT-116) of the same compound?
The GI50 was 17.5 µM (inactive).

What about the GI50 (HL-60) of the same compound?
The GI50 was 25.9 µM (inactive).

And the GI50 (K562)?
The GI50 was 21 µM (inactive).

And the GI50 (MCF7)?
Its GI50 is 21.1 µM (inactive).

What about the GI50 (MDA-N) of the same compound?
Its GI50 is 19.3 µM (inactive).

What about the GI50 (MOLT-4) of the same compound?
Its GI50 is 20.6 µM (inactive).

What about the GI50 (NCI-H226) of the same compound?
Its GI50 is 19 µM (inactive).

And the GI50 (OVCAR-3)?
The GI50 was 16.6 µM (inactive).

And the GI50 (PC-3)?
The GI50 was 18.8 µM (inactive).

And the GI50 (RPMI-8226)?
Its GI50 is 23.2 µM (inactive).

And the GI50 (SF-295)?
Its GI50 is 18.1 µM (inactive).

What about the GI50 (SF-539) of the same compound?
The GI50 was 95.1 µM (inactive).

What about the GI50 (SK-MEL-2) of the same compound?
The GI50 was 16.2 µM (inactive).

And the GI50 (SN12C)?
Its GI50 is 18.4 µM (inactive).

And the GI50 (T47D)?
The GI50 was 21.7 µM (inactive).

What about the GI50 (UO-31) of the same compound?
Its GI50 is 21 µM (inactive).

Which results are given for `CSc1c2c(C)n[nH]c2nn1-c1ccccc1`?
GI50 (786-0): 66.8 µM (inactive); GI50 (CCRF-CEM): 33 µM (inactive); GI50 (HCT-116): 45.4 µM (inactive); GI50 (HL-60): 29.6 µM (inactive); GI50 (K562): 47.5 µM (inactive); GI50 (MCF7): 92 µM (inactive); GI50 (MDA-N): > 100 µM (inactive); GI50 (MOLT-4): 42.6 µM (inactive); GI50 (NCI-H226): 58.5 µM (inactive); GI50 (OVCAR-3): 39.3 µM (inactive); GI50 (PC-3): 58.7 µM (inactive); GI50 (RPMI-8226): > 100 µM (inactive); GI50 (SF-539): 40.4 µM (inactive); GI50 (SK-MEL-2): > 100 µM (inactive); GI50 (SN12C): > 100 µM (inactive); GI50 (T47D): 85.1 µM (inactive); GI50 (UO-31): 46.7 µM (inactive)

`CC(=O)NC(Cc1c[nH]c2ccccc12)C(=O)O` (stereo not given) was tested. Which GI50 (786-0) did it give?
The GI50 was > 100 µM (inactive).

What about the GI50 (ACHN) of the same compound?
The GI50 was > 100 µM (inactive).

And the GI50 (CCRF-CEM)?
The GI50 was > 100 µM (inactive).

What about the GI50 (HCT-116) of the same compound?
The GI50 was > 100 µM (inactive).

And the GI50 (HL-60)?
The GI50 was > 100 µM (inactive).

What about the GI50 (K562) of the same compound?
Its GI50 is > 100 µM (inactive).

And the GI50 (MCF7)?
The GI50 was > 100 µM (inactive).

And the GI50 (MDA-N)?
Its GI50 is > 100 µM (inactive).

What about the GI50 (NCI-H226) of the same compound?
Its GI50 is > 100 µM (inactive).

And the GI50 (OVCAR-3)?
Its GI50 is > 100 µM (inactive).

What about the GI50 (PC-3) of the same compound?
Its GI50 is > 100 µM (inactive).

What about the GI50 (RPMI-8226) of the same compound?
Its GI50 is > 100 µM (inactive).

What about the GI50 (SF-295) of the same compound?
Its GI50 is > 100 µM (inactive).

What about the GI50 (SK-MEL-2) of the same compound?
The GI50 was > 100 µM (inactive).

What about the GI50 (SN12C) of the same compound?
The GI50 was > 100 µM (inactive).

What about the GI50 (T47D) of the same compound?
The GI50 was > 100 µM (inactive).

And the GI50 (UO-31)?
The GI50 was > 100 µM (inactive).

How did the GI50 (786-0) turn out when `COc1ccc2c(c1)CN1C(=N2)CSC1c1c(Cl)cccc1[N+](=O)[O-]` (stereo not given) was run?
Its GI50 is 25.9 µM (inactive).

And the GI50 (ACHN)?
The GI50 was 30.5 µM (inactive).

And the GI50 (HCT-116)?
The GI50 was 15.6 µM (inactive).

And the GI50 (HL-60)?
Its GI50 is 11.5 µM (inactive).

What about the GI50 (K562) of the same compound?
The GI50 was 13.6 µM (inactive).

And the GI50 (MCF7)?
The GI50 was 14.4 µM (inactive).

And the GI50 (MDA-N)?
Its GI50 is 18.5 µM (inactive).

What about the GI50 (MOLT-4) of the same compound?
Its GI50 is 12.6 µM (inactive).

And the GI50 (NCI-H226)?
The GI50 was 11.9 µM (inactive).

And the GI50 (PC-3)?
The GI50 was 23.8 µM (inactive).

What about the GI50 (RPMI-8226) of the same compound?
Its GI50 is 15.4 µM (inactive).

What about the GI50 (SF-295) of the same compound?
Its GI50 is 21.8 µM (inactive).

And the GI50 (SF-539)?
Its GI50 is 15.1 µM (inactive).

And the GI50 (SK-MEL-2)?
The GI50 was 17.5 µM (inactive).

What about the GI50 (SN12C) of the same compound?
Its GI50 is 17.5 µM (inactive).

And the GI50 (T47D)?
Its GI50 is 31 µM (inactive).

What about the GI50 (UO-31) of the same compound?
The GI50 was 21.3 µM (inactive).

With `c1ccc(-c2sc(-c3cccs3)cc2Cc2cccs2)cc1` as the compound, how does the GI50 (786-0) read?
Its GI50 is > 10 µM (inactive).

And the GI50 (ACHN)?
The GI50 was > 10 µM (inactive).

What about the GI50 (CCRF-CEM) of the same compound?
The GI50 was > 10 µM (inactive).

What about the GI50 (HCT-116) of the same compound?
Its GI50 is > 10 µM (inactive).

And the GI50 (HL-60)?
Its GI50 is > 10 µM (inactive).

What about the GI50 (K562) of the same compound?
The GI50 was > 10 µM (inactive).

What about the GI50 (MCF7) of the same compound?
Its GI50 is > 10 µM (inactive).

And the GI50 (MDA-N)?
The GI50 was > 10 µM (inactive).

What about the GI50 (MOLT-4) of the same compound?
Its GI50 is > 10 µM (inactive).

And the GI50 (NCI-H226)?
The GI50 was > 10 µM (inactive).

And the GI50 (PC-3)?
Its GI50 is > 10 µM (inactive).

And the GI50 (RPMI-8226)?
The GI50 was > 10 µM (inactive).

What about the GI50 (SF-295) of the same compound?
Its GI50 is > 10 µM (inactive).

And the GI50 (SF-539)?
The GI50 was > 10 µM (inactive).

And the GI50 (SN12C)?
The GI50 was > 10 µM (inactive).

And the GI50 (T47D)?
The GI50 was > 10 µM (inactive).

What about the GI50 (UO-31) of the same compound?
Its GI50 is > 10 µM (inactive).

`COc1ccc(-c2cc3c(c4cc(OC)ccc24)C(=O)OC3=O)cc1` was tested. Which GI50 (786-0) did it give?
Its GI50 is > 100 µM (inactive).

What about the GI50 (ACHN) of the same compound?
Its GI50 is > 100 µM (inactive).

What about the GI50 (CCRF-CEM) of the same compound?
The GI50 was > 100 µM (inactive).

And the GI50 (HCT-116)?
The GI50 was > 100 µM (inactive).

What about the GI50 (HL-60) of the same compound?
The GI50 was > 100 µM (inactive).

And the GI50 (K562)?
The GI50 was > 100 µM (inactive).

And the GI50 (MCF7)?
Its GI50 is > 100 µM (inactive).

What about the GI50 (MDA-N) of the same compound?
The GI50 was 86.5 µM (inactive).

And the GI50 (MOLT-4)?
Its GI50 is > 100 µM (inactive).

What about the GI50 (NCI-H226) of the same compound?
The GI50 was > 100 µM (inactive).

What about the GI50 (OVCAR-3) of the same compound?
Its GI50 is > 100 µM (inactive).

And the GI50 (PC-3)?
Its GI50 is > 100 µM (inactive).

And the GI50 (RPMI-8226)?
Its GI50 is > 100 µM (inactive).

What about the GI50 (SF-295) of the same compound?
Its GI50 is > 100 µM (inactive).

And the GI50 (SK-MEL-2)?
Its GI50 is > 100 µM (inactive).

What about the GI50 (SN12C) of the same compound?
Its GI50 is > 100 µM (inactive).

And the GI50 (T47D)?
Its GI50 is > 100 µM (inactive).

What about the GI50 (UO-31) of the same compound?
Its GI50 is 95.5 µM (inactive).

What does the source list for `O=c1oc2ccccc2c(Nc2ccc3c(c2)S(=O)(=O)c2ccccc2O3)c1[N+](=O)[O-]`?
GI50 (786-0): 21.1 µM (inactive); GI50 (ACHN): 22.1 µM (inactive); GI50 (CCRF-CEM): 23.6 µM (inactive); GI50 (HCT-116): 23.7 µM (inactive); GI50 (HL-60): 27.3 µM (inactive); GI50 (K562): 20.6 µM (inactive); GI50 (MCF7): 21.8 µM (inactive); GI50 (MDA-N): 22.5 µM (inactive); GI50 (NCI-H226): 25.7 µM (inactive); GI50 (OVCAR-3): 20.8 µM (inactive); GI50 (PC-3): 21.5 µM (inactive); GI50 (RPMI-8226): 19.5 µM (inactive); GI50 (SF-295): 24.8 µM (inactive); GI50 (SF-539): 25.3 µM (inactive); GI50 (SK-MEL-2): 19.3 µM (inactive); GI50 (SN12C): 25.6 µM (inactive); GI50 (T47D): 18.7 µM (inactive); GI50 (UO-31): 33.4 µM (inactive)

From ChEMBL document CHEMBL1201862, “PubChem BioAssay data set” (2004)
